Experimental findings from patent publication US11278582B2, “Compositions containing plant extracts and applications thereof” (TCI CO., LTD., priority 2017, dated 2022) are described below.

This test relates to adipocytes differentiated from OP9 mouse stromal cell line (ATCC CRL-2749). Put plainly: Oil red O staining of the fat content of adipocytes treated with plant extracts or combinations. It is filed as cell-based. Particulars: for Relative fat content: 7-10 days, relative to control group (100%).

Protocol: The neutral fat content of cells was determined by oil red O staining. Prior to staining, the cells were washed twice with PBS and then fixed with 10% formaldehyde at room temperature for 30 minutes. The fixed cells were washed twice with PBS and rinsed with 60% isopropanol for 1 minute. Thereafter, the cells were stained with an oil red O staining solution (1.8 mg/ml oil red O dissolved in 60% isopropanol aqueous solution) for 1 hour, and then treated with 60% isopropanol for 5 seconds to remove excess dye. Lastly, 100% isopropanol was added to the cells and incubated with shaking for 10 minutes to dissolve the intracellular dye, and the absorbance of the cell suspension at 510 nm was measured using an ELISA (enzyme-linked immunosorbent assay) reader (BioTek). The statistical significance of differences between data was determined by Student's t-test using the Excel software.
Briefly, OP9 cells were seeded at 8×10^4 cells/well in 24-well culture plates, where each well contained 500 μl of pre-adipocyte expansion medium (90% DMEM, 20% FBS, and 1% penicillin/streptomycin), and cultured at 37° C. for 7 days. The medium was refreshed every 3 days during cell culture with adipocyte differentiation medium (90% DMEM medium, 20% FBS, and 1% penicillin/streptomycin). After 7 days, complete differentiation into adipocytes were confirmed by examining oil droplets formed in the cells using a microscope (ZEISS; at 400× magnification). Thereafter, each of the plant extracts or each of the compositions containing plant extracts, listed in TABLE 1, was added to the cells, which were then cultured at 37° C. for 7-10 days, during which the adipocyte differentiation medium was refreshed every 3 days. Finally, the medium was removed, and the cells of each group were washed with PBS and subjected to oil red O staining for determination of the fat content. The relative fat content is a ratio of the cellular fat content of the experimental group relative to that of the control group (expressed as a percentage). […]

On to `CC(C)=CCC/C(C)=C/C=C/C(C)=C/C=C/C(C)=C/C=C/C=C(C)/C=C/C=C(C)/C=C/C=C(\C)CCC=C(C)C` [Lycopene], for which the Relative fat content (single treatment 0.015625 mg/ml) is reported as 73.34%. Regarding `CC1=C(/C=C/C(C)=C/C=C/C(C)=C/C=C/C=C(C)/C=C/C=C(C)/C=C/C2=C(C)CCCC2(C)C)C(C)(C)CCC1` [β-carotene], where the note is “single treatment 0.5 mg/ml”, the Relative fat content is reported as 99.00%. The “Change of the fat content of adipocytes compared to the control group (in words)” value (sole treatment, concentrations as in TABLE 1, Student's t-test) is “did not significantly reduce the fat content”.
